Data taken from patent US20160221948A1, “NITROGEN-CONTAINING SATURATED HETEROCYCLIC COMPOUND” (SUMITOMO CHEMICAL COMPANY, LIMITED, priority 2013, published 2016).

Target: human SSTR4 (Homo sapiens, UniProt P31391)
Experiment: Evaluation of agonist activities using human SSTR4-stably expressing cells (aequorin luminescence)
Type: cell-based
Set-up: expressed in transfected cells; host or cells: HEK293
In short: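 HEK293 cells stably expressing SSTR4, transiently given Gα16 and apoaequorin, were loaded with 0.5 μmol/L coelenterazine H for 4 h at room temperature. After compound addition in Hanks/20 mM Hepes/0.1% BSA, luminescence was read for 90 s. Activity is relative to 1 μmol/L somatostatin as 100%.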

Chain of human SSTR4 (P31391 whole entry): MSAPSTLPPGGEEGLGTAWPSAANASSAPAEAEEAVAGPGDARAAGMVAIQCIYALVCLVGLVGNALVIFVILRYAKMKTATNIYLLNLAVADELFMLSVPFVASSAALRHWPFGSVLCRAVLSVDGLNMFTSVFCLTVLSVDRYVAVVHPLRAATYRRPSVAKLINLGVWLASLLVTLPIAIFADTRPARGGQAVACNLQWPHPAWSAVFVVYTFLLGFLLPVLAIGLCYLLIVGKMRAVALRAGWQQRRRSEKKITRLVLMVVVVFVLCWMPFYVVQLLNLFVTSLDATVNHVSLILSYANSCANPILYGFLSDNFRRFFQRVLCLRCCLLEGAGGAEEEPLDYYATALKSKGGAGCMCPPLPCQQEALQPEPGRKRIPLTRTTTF

CN1CCC[C@H](C(=O)NC(C)(C)c2cc(Cl)ccc2Cl)C1 [Example 21, (3S)—N-[2-(2,5-dichlorophenyl)propane-2-yl]-1-methylpiperidine-3-carboxamide]
SSTR4 agonist activity compared with other compounds (Tables 25 to 27): stronger SSTR4 agonist activity
EC50 (luminescence signal, 1 μmol/L somatostatin taken as 100%): 2 nM
